Broadly, the inhibition is the share of the control response that was lost under treatment.

Active and inactive are the calls of the source. No rule for the calls is given here.

The test system of this experiment is 3C-like protease (Infectious bronchitis virus). The experiment is described as follows: blockers of SARS 3CLpro activity – biochemical, fluorescence, set 3, late-stage follow-up (AID 493245). The settings on record: recombinant 3CLpro, fluorogenic substrate cleavage; at 100 µM; stronger effect = higher value.
For the compound `O=C(Nc1ccc(N(C(=O)Cn2nnc3ccccc32)C(C(=O)NCc2ccccc2)c2cccc(F)c2)cc1)C1CCC1` (stereo unspecified), the inhibition is 62.5%.
With `O=C(Nc1ccc(N(C(=O)Cn2nnc3ccccc32)C(C(=O)NCc2ccccc2)c2cccc(F)c2)cc1)C1CC1` (stereo unspecified), the inhibition is 68.8%.
With `CC(C)(C)NC(=O)C(c1cccnc1)N(C(=O)c1ccco1)C1CC2CCC1C2` (stereo unspecified), the inhibition is 5.71% (inactive).
As for `CC(C)(C)NC(=O)C(c1cccnc1)N(C(=O)c1ccco1)C1CCCCC1` (stereo unspecified), the figure is 4.49% (inactive).
Consider `CC(C)C(=O)Nc1ccc(N(C(=O)Cn2nnc3ccccc32)C(C(=O)NCc2ccccc2)c2cccc(F)c2)cc1` (stereo unspecified), for which the inhibition is 73.5%.
Turning to `CC(C)(C)NC(=O)C(c1cccnc1)N(C(=O)c1ccco1)C12CC3CC(CC(C3)C1)C2` (stereo unspecified), the inhibition was 1.27% (inactive).

The values above are taken from PubChem BioAssay AID493245 (The Scripps Research Institute Molecular Screening Center, 2011).
